Values quoted from earlier work, collected in PubChem BioAssay AID1259409 (Chemical Carcinogenesis Research Information System (CCRIS), 2018).

Test system: rodent chemically induced tumor inhibition, incidence and multiplicity
Assay: CCRIS tumor inhibitor studies

CCC[Se]C#N
tumour outcome (control, treated, inhibition, significance) (Carcinogen: 7,12-DIMETHYLBENZ[A]ANTHRACENE, 57-97-6, Dose [Inhibitor]: 0.1, 2 PPM (SELENIUM) IN DIET FOR 3 WK BEGINNING 2 WK PRIOR TO CARCINOGEN DOSE (STUDY DURATION: 25 WK), Route [Inhibitor]: ORAL, Species: RAT, Strain/Sex: SPRAGUE-DAWLEY/FEMALE, Target Tissue: Type of Lesion: MAMMARY GLAND: TUMOR, Dose [Carcinogen]: 10 MG ONCE, Promoter: NONE USED): 25/30 (83%), 13/30 (43%), 48%, p<0.05

CCCCCCCCCCCCCCCCCCN
tumour outcome (control, treated, inhibition, significance) (Carcinogen: 7,12-DIMETHYLBENZ[A]ANTHRACENE, 57-97-6, Dose [Inhibitor]: 0, 0.01% IN 20% CORN OIL DIET BEGINNING 1 WK POST CARCINOGEN DOSE (STUDY DURATION: 17 WK), Route [Inhibitor]: ORAL, Species: RAT, Strain/Sex: SPRAGUE-DAWLEY/FEMALE, Target Tissue: Type of Lesion: MAMMARY GLAND: ADENOCARCINOMA, Dose [Carcinogen]: 5 MG IN 0.5 ML OLIVE OIL ONCE, Promoter: NONE USED): 57%, 57%, 0%, not significant | tumour outcome (control, treated, inhibition, significance) (Carcinogen: 7,12-DIMETHYLBENZ[A]ANTHRACENE, 57-97-6, Dose [Inhibitor]: 0, 0.1% IN 20% CORN OIL DIET BEGINNING 1 WK POST CARCINOGEN DOSE (STUDY DURATION: 17 WK), Route [Inhibitor]: ORAL, Species: RAT, Strain/Sex: SPRAGUE-DAWLEY/FEMALE, Target Tissue: Type of Lesion: MAMMARY GLAND: ADENOCARCINOMA, Dose [Carcinogen]: 5 MG IN 0.5 ML OLIVE OIL ONCE, Promoter: NONE USED): 57%, 14%, 75%, p<0.001

C=C1/C(=C\C=C2/CCC[C@]3(C)[C@@H]([C@H](C)CC[C@@H](CC)C(C)C)CC[C@@H]23)C[C@@H](O)C[C@@H]1O
tumour outcome (control, treated, inhibition, significance) (Carcinogen: 7,12-DIMETHYLBENZ[A]ANTHRACENE (57-97-6), Dose [Inhibitor]: 40 MG/KG DIET 1 WK AFTER CARCINOGEN TO END, Route [Inhibitor]: DIET, Species: RAT, Strain/Sex: SPRAGUE-DAWLEY/FEMALE, Target Tissue: Type of Lesion: MAMMARY GLAND: TUMOR, Dose [Carcinogen]: 15 MG AT 50 D OF AGE, ONCE): 85%, 50%, 41%, p<0.05 | tumour outcome (control, treated, inhibition, significance) (Carcinogen: 7,12-DIMETHYLBENZ[A]ANTHRACENE (57-97-6), Dose [Inhibitor]: 40 MG/KG DIET 2 WKS BEFORE CARCINOGEN AND 1 WK AFTER CARCINOGEN, Route [Inhibitor]: DIET, Species: RAT, Strain/Sex: SPRAGUE-DAWLEY/FEMALE, Target Tissue: Type of Lesion: MAMMARY GLAND: TUMOR, Dose [Carcinogen]: 15 MG AT 50 D OF AGE, ONCE): 85%, 70%, 18%, not significant | tumour outcome (control, treated, inhibition, significance) (Carcinogen: 7,12-DIMETHYLBENZ[A]ANTHRACENE (57-97-6), Dose [Inhibitor]: 40 MG/KG DIET 2 WKS BEFORE CARCINOGEN TO END, Route [Inhibitor]: DIET, Species: RAT, Strain/Sex: SPRAGUE-DAWLEY/FEMALE, Target Tissue: Type of Lesion: MAMMARY GLAND: TUMOR, Dose [Carcinogen]: 15 MG AT 50 D OF AGE, ONCE): 85%, 50%, 41%, not calculated | outcome (Carcinogen: AZOXYMETHANE (25843-45-2), Dose [Inhibitor]: 25 UG/KG DIET 2 WKS AFTER CARCINOGEN TO END (STUDY DURATION: 10 WKS), Route [Inhibitor]: DIET, Species: MOUSE, Strain/Sex: CF-1, Target Tissue: Type of Lesion: COLON: TOTAL ABERRANT CRYPT FOCI (SURROGATE FOR COLON TUMOR), Dose [Carcinogen]: 10 MG/KG BW WEEKLY FOR 2 WKS (STUDY DURATION: 10 WKS)): 9.6, 2.0, 79%, not calculated | outcome (Carcinogen: AZOXYMETHANE (25843-45-2), Dose [Inhibitor]: 25 UG/KG DIET 2 WKS BEFORE CARCINOGEN TO 2 WKS AFTER (STUDY DURATION: 10 WKS), Route [Inhibitor]: DIET, Species: MOUSE, Strain/Sex: CF-1, Target Tissue: Type of Lesion: COLON: TOTAL ABERRANT CRYPT FOCI (SURROGATE FOR COLON TUMOR), Dose [Carcinogen]: 10 MG/KG BW WEEKLY FOR 2 WKS (STUDY DURATION: 10 WKS)): 9.6, 2.8, 71%, not calculated | outcome (Carcinogen: AZOXYMETHANE (25843-45-2), Dose [Inhibitor]: 25 UG/KG DIET 2 WKS BEFORE CARCINOGEN TO END (STUDY DURATION: 10 WKS), Route [Inhibitor]: DIET, Species: MOUSE, Strain/Sex: CF-1, Target Tissue: Type of Lesion: COLON: TOTAL ABERRANT CRYPT FOCI (SURROGATE FOR COLON TUMOR), Dose [Carcinogen]: 10 MG/KG BW WEEKLY FOR 2 WKS (STUDY DURATION: 10 WKS)): 9.6, 1.8, 81%, not calculated | outcome (Carcinogen: AZOXYMETHANE (25843-45-2), Dose [Inhibitor]: 25 UG/KG DIET 7 D BEFORE CARCINOGEN TO END OF STUDY, Route [Inhibitor]: DIET, Species: MOUSE, Strain/Sex: CF-1, Target Tissue: Type of Lesion: COLON: ABERRANT CRYPT FOCI (SURROGATE FOR COLON TUMOR), Dose [Carcinogen]: 10 MG/KG BW WEEKLY FOR 2 WKS): 29%, 1.4, 95%, p<0.001 | outcome (Carcinogen: N-METHYL-N-NITROSOUREA ( 684-93-5), Dose [Inhibitor]: 0, 25, 50 UG/KG DIET 2 WKS BEFORE CARCINOGEN CONTINUING FOR 120 D (STUDY DURATION: 120 D), Dose [Inhibitor]: 0, 25, 50 UG/KG DIET 2 WKS BEFORE CARCINOGEN CONTINUING FOR 120 D (STUDY DURATION: 120 D), Route [Inhibitor]: DIET, Species: RAT, Strain/Sex: SPRAGUE-DAWLEY/FEMALE, Target Tissue: Type of Lesion: MAMMARY GLAND: TUMOR, Dose [Carcinogen]: 50 MG/KG BW ONCE): 80%, 53%, 34%, not calculated; 47%, 41%, not calculated | tumour outcome (control, treated, inhibition, significance) (Carcinogen: N-METHYL-N-NITROSOUREA, 684-93-5, Dose [Inhibitor]: 0, 25 UG/KG DIET AT 65 D OF AGE FOR THE DURATION OF THE STUDY (STUDY DURATION: 120 D), Route [Inhibitor]: ORAL, Species: RAT, Strain/Sex: SPRAGUE-DAWLEY, Target Tissue: Type of Lesion: MAMMARY GLAND: TUMOR, Dose [Carcinogen]: 50 MG/KG BW ONCE AT 80 D OF AGE, Promoter: NONE): 12/15 (80%), 8/15 (53%), 33%, not significant | tumour outcome (control, treated, inhibition, significance) (Carcinogen: N-METHYL-N-NITROSOUREA, 684-93-5, Dose [Inhibitor]: 0, 50 UG/KG DIET AT 65 D OF AGE FOR THE DURATION OF THE STUDY (STUDY DURATION: 120 D), Route [Inhibitor]: ORAL, Species: RAT, Strain/Sex: SPRAGUE-DAWLEY, Target Tissue: Type of Lesion: MAMMARY GLAND: TUMOR, Dose [Carcinogen]: 50 MG/KG BW ONCE AT 80 D OF AGE, Promoter: NONE): 12/15 (80%), 7/15 (47%), 41%, p=0.03

CC(C)(C)C1=CC(=O)C=C(C(C)(C)C)C1=O
tumour outcome (control, treated, inhibition, significance) (Carcinogen: 7,12-DIMETHYLBENZ[A]ANTHRACENE, 57-97-6, Dose [Inhibitor]: 0, 200 MG/KG BW/D FOR 3 WK BEGINNING 2 WK PRIOR TO CARCINOGEN DOSE (STUDY DURATION: 24 WK), Route [Inhibitor]: INTRAPERITONEAL, Species: RAT, Strain/Sex: SPRAGUE-DAWLEY/FEMALE, Target Tissue: Type of Lesion: MAMMARY GLAND: TUMOR, Dose [Carcinogen]: 33.3 MG/KG BW IN 0.25 ML CORN OIL ONCE AT 50 D OF AGE, Promoter: NONE USED): 91%, 68%, 25%, not calculated

COc1cc(C)c(/C=C/C(C)=C/C=C/C(C)=C/C(=O)O)c(C)c1C
tumour outcome (control, treated, inhibition, significance) (Carcinogen: N-METHYL-N-NITROSOUREA, 684-93-5, Dose [Inhibitor]: 75 MG/KG DIET DAILY FOR 55 WK STARTING 1 WK AFTER LAST CARCINOGEN EXPOSURE (STUDY DURATION: 65 WK), Route [Inhibitor]: ORAL, Species: HAMSTER, Strain/Sex: SYRIAN/MALE, Target Tissue: Type of Lesion: TRACHEA: TUMOR, Dose [Carcinogen]: 1% FOR 7 SECONDS 2/WK FOR 9 WK, Promoter: NONE USED): 30/37 (81%), 27/37 (73%), 10%, not significant | tumour outcome (control, treated, inhibition, significance) (Carcinogen: N-METHYL-N-NITROSOUREA, 684-93-5, Dose [Inhibitor]: 150 MG/KG DIET DAILY FOR 55 WK STARTING 1 WK AFTER LAST CARCINOGEN EXPOSURE (STUDY DURATION: 65 WK), Route [Inhibitor]: ORAL, Species: HAMSTER, Strain/Sex: SYRIAN/MALE, Target Tissue: Type of Lesion: TRACHEA: TUMOR, Dose [Carcinogen]: 1% FOR 7 SECONDS 2/WK FOR 9 WK, Promoter: NONE USED): 30/37 (81%), 24/38 (63%), 22%, not significant | tumour outcome (control, treated, inhibition, significance) (Carcinogen: N-METHYL-N-NITROSOUREA, 684-93-5, Dose [Inhibitor]: 150 MG/KG DIET DAILY FOR 55 WK STARTING 1 WK AFTER LAST CARCINOGEN EXPOSURE (STUDY DURATION: 66 WK), Route [Inhibitor]: ORAL, Species: HAMSTER, Strain/Sex: SYRIAN/MALE, Target Tissue: Type of Lesion: TRACHEA: TUMOR, Dose [Carcinogen]: 1% FOR 7 SECONDS 2/WK FOR 10 WK, Promoter: NONE USED): 32/38 (84%), 34/39 (87%), -4%, not significant | tumour outcome (control, treated, inhibition, significance) (Carcinogen: N-METHYL-N-NITROSOUREA, 684-93-5, Dose [Inhibitor]: 150 MG/KG DIET DAILY FOR 55 WK STARTING 1 WK AFTER LAST CARCINOGEN EXPOSURE (STUDY DURATION: 67.5 WK), Route [Inhibitor]: ORAL, Species: HAMSTER, Strain/Sex: SYRIAN/MALE, Target Tissue: Type of Lesion: TRACHEA: TUMOR, Dose [Carcinogen]: 1% FOR 7 SECONDS 2/WK FOR 11.5 WK, Promoter: NONE USED): 24/40 (60%), 24/40 (60%), 0%, not significant
